Experimental data taken from patent US20180207294A1, “NON-ALCOHOLIC FATTY LIVER REGULATING FACTOR 14-3-3 PROTEIN” (Korea University Research and Business Foundation, priority 2015, published 2018).

Legend:
[1] = test system: FAT/CD36 promoter; experiment: Chromatin immunoprecipitation (ChIP) of PPARγ2 on FAT/CD36 promoter, HepG2 cells; type: cell-based; conditions: overexpression of 14-3-3β / 14-3-3γ, FIG. 7C upper side
Protocol: In addition, for chromatin immunoprecipitation (ChIP), HepG2 cells were seeded in a 100 mm plate at a density of 4×10^6 cells per each well, and then transfected with Flag-PPARγ2 DNA (4 μg), mGST-14-3-3β DNA (4 μg) or mGST-14-3-3γ DNA (4 μg), and si-14-3-3β (20 μM, Santa Cruz) or si-14-3-3γ (20 μM, Santa Cruz) using an E-fection plus reagent (Lugen). A ratio of DNA to the E-fection plus reagent was 1:2, and this method was performed according to a manufacturer's manual. The corresponding cells were treated with 0.75% formaldehyde at room temperature for 15 minutes, glycine was added thereto, and the resulting cells were scraped into ice-cold PBS and centrifuged at 1,000×g and 4° C. for 3 minutes to remove a supernatant, pellets were dissolved with 400 μl of FA lysis buffer (50 mM HEPES, 150 mM NaCl, 2 mM EDTA pH8.0, 1% Triton-X100, 0.1% NaDeoxycholate), and then lysed using a sonicator twice for 10 minutes at a high voltage under the following condition: lysis for […] and resting for 30 seconds. […]
In addition, the binding of PPARγ2 and a binding strength thereof according to the expression of 14-3-3β and 14-3-3γ were evaluated by ChIP assay using a PPAR response element (PPRE) known as a binding site of PPARγ2 present in the FAT/CD36 promoter. […]

[2] = biological target: T1, PPAR-RXR complex (Homo sapiens, UniProt P37231); experiment: Formation of PPAR-RXR complex under 14-3-3 overexpression; type: binding; conditions: overexpression of 14-3-3β and 14-3-3γ; FIG. 8C
T1 sequence (P37231 1-505): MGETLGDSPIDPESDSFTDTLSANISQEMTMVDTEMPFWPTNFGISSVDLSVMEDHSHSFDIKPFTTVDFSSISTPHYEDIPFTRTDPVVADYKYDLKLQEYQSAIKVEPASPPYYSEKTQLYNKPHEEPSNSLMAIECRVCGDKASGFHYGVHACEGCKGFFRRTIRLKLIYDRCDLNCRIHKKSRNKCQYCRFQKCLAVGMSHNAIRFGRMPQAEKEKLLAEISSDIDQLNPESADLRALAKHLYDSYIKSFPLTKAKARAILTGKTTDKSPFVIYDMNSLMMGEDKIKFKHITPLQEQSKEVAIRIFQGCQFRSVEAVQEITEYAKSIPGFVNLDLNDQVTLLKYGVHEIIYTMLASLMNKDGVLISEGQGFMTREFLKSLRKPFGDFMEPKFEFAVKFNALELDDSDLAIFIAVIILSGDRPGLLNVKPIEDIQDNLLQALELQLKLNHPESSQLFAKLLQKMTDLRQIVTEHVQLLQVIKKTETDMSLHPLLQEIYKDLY
T1 sequence (P19793 1-462 partner): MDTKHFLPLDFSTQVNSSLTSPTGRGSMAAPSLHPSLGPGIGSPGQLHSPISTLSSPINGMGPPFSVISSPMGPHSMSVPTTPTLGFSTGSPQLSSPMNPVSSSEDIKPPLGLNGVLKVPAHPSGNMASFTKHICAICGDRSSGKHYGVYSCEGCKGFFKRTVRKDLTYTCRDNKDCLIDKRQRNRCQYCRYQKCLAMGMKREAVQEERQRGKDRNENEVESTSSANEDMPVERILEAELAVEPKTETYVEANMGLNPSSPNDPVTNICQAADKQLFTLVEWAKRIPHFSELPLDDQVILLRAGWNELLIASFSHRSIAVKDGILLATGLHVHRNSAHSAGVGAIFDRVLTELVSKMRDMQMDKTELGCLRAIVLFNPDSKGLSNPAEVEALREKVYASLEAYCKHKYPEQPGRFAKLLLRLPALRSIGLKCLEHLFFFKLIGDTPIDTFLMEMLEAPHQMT

Row | Substance | binding of PPARγ2 to the FAT/CD36 promoter (ChIP) [1] | formation of the PPAR-RXR complex [2]
1 | 14-3-3β: 14-3-3 isoform protein, overexpressed by DNA transfection; regulating factor that increases transcriptional activity of PPARγ2 | increased | did not affect the formation of the PPAR-RXR complex
2 | 14-3-3γ: 14-3-3 isoform protein, overexpressed by DNA transfection; regulating factor that decreases transcriptional activity of PPARγ2 | inhibited | did not affect the formation of the PPAR-RXR complex
